Measured values reported in patent publication US20250101436A1, “APTAMERS AND SMALL MOLECULE LIGANDS” (MeiraGTx UK II Limited, priority 2021, published 2025).

Tested on: N5-12G6 riboswitch
Experiment: Firefly luciferase assay, N5-12G6 riboswitch in HEK293 cells
Settings: 12G6 riboswitch, HEK293
Experimental: Transfection: 3.5×10^4 human embryonic kidney (HEK) 293 cells were plated in a 96-well flat bottom plate the day before transfection. Plasmid DNA (500 ng) was added to a tube or a 96-well U-bottom plate. Separately, TransIT-293 reagent (Mirus; 1.4 L) was added to 50 μL Optimum I media (Life Technologies) and allowed to sit for 5 minutes at room temperature (RT). Then, 50 μL of this diluted transfection reagent was added to the DNA, mixed, and incubated at RT for 20 min. Finally, 7 μL of this solution was added to a well of cells in the 96-well plate. Four hours after transfection, medium containing transfection solution was replaced by medium with either TPP or fursultiamine as aptamer ligands.
Firefly luciferase assay of cultured cells: Twenty-four hours after media change, plates were removed from the incubator, and equilibrated to RT for several minutes on a lab bench, then aspirated. Glo-lysis buffer (Promega, 100 μL, RT) was added, and the plates allowed to remain at RT for at least 5 minutes. Then, the well contents were mixed by 50 μL trituration, and 20 μL of each sample was mixed with 20 μL of bright-glo reagent (Promega) that had been diluted to 10% in glo-lysis buffer. 96 wells were spaced on an opaque white 384-well plate. Following a 5 min incubation at RT, luminescence was measured using a Tecan machine with 500 ms read time. The luciferase activity was expressed as mean arbitrary light units (ALU)±S.D., and fold induction was calculated as the quotient of the luciferase activity obtained from cells with TPP or analog compound treatment divided by the luciferase activity obtained from cells without TPP or analog compound treatment.

Structure (SMILES)	regulation of luciferase expression (FIG. 4e)
CC1CNCCN1c1ccncc1NCc1ccc2nccnc2c1 (stereo not drawn) [compound 015, 4-(2-Methylpiperazin-1-yl)-N-(quinoxalin-6-ylmethyl)pyridin-3-amine]	regulate expression in a dose-dependent fashion
Clc1cncc(NCc2ccc3nccnc3c2)c1N1CCNCC1 [compound 019, 5-Chloro-4-(piperazin-1-yl)-N-(quinoxalin-6-ylmethyl)pyridin-3-amine]	regulate expression in a dose-dependent fashion
c1cc(OC2CCNC2)c(NCc2ccc3nccnc3c2)cn1 (stereo not drawn) [compound 018, 4-(Pyrrolidin-3-yloxy)-N-(quinoxalin-6-ylmethyl)pyridin-3-amine]	regulate expression in a dose-dependent fashion
CC1CN(c2ccncc2NCc2ccc3nccnc3c2)CCN1 (stereo not drawn) [compound 016, 4-(3-Methylpiperazin-1-yl)-N-(quinoxalin-6-ylmethyl)pyridin-3-amine]	regulate expression in a dose-dependent fashion
Clc1cc2nccnc2cc1CNc1cnccc1N1CCNCC1 [compound 013, N-((7-Chloroquinoxalin-6-yl)methyl)-4-(piperazin-1-yl)pyridin-3-amine]	regulate expression in a dose-dependent fashion

Same assay, conditions: Homo sapiens, HEK293, read-out: Fold induction 2 μM (HEK), 12G6 riboswitch, luciferase, HEK293, 2 μM

Structure (SMILES)	fold induction at 2 µM
Clc1cc2nccnc2cc1CNc1cnccc1N1CC2CNCC2C1 (stereo not drawn) [compound 099, N-((7-chloroquinoxalin-6-yl)methyl)-4-(hexahydropyrrolo[3,4-c]pyrrol-2(1H)-yl)pyridin-3-amine]	8.2
Fc1cc(N2CCNCC2)c(NCc2ccc3nccnc3c2)cn1 [compound 024, 6-Fluoro-4-(piperazin-1-yl)-N-(quinoxalin-6-ylmethyl)pyridin-3-amine]	35.1
Clc1cncc(NCc2ccc3nccnc3c2)c1O[C@@H]1CCNC1 [compound 110, (R)-5-chloro-4-(pyrrolidin-3-yloxy)-N-(quinoxalin-6-ylmethyl)pyridin-3-amine]	43.1
Cc1cncc(NCc2cc(Cl)c3nccnc3c2)c1N1CCNCC1 [compound 085, N-((8-chloroquinoxalin-6-yl)methyl)-5-methyl-4-(piperazin-1-yl)pyridin-3-amine]	5.4
Clc1cc(CNc2cnccc2OC2CNC2)cc2nccnc12 [compound 064, 4-(azetidin-3-yloxy)-N-((8-chloroquinoxalin-6-yl)methyl)pyridin-3-amine]	15
C[C@@H]1CN(c2ccncc2NCc2cc(F)c3nccnc3c2)CCN1 [compound 060, (R)—N-((8-fluoroquinoxalin-6-yl)methyl)-4-(3-methylpiperazin-1-yl)pyridin-3-amine]	1.7
Clc1cc(CNc2cnccc2N2CCCNCC2)cc2nccnc12 [compound 089, N-((8-chloroquinoxalin-6-yl)methyl)-4-(1,4-diazepan-1-yl)pyridin-3-amine]	4.8
Clc1cncc(NCc2ccc3nccnc3c2)c1N1CCNCC1 [compound 019, 5-Chloro-4-(piperazin-1-yl)-N-(quinoxalin-6-ylmethyl)pyridin-3-amine]	60.2
Fc1cc(CNc2cnccc2OC2CNC2)cc2nccnc12 [compound 028, 4-(Azetidin-3-yloxy)-N-((8-fluoroquinoxalin-6-yl)methyl)pyridin-3-amine]	33
Clc1cc2nccnc2cc1CNc1cncc(Cl)c1O[C@@H]1CCNC1 [compound 121, (R)-5-chloro-N-((7-chloroquinoxalin-6-yl)methyl)-4-(pyrrolidin-3-yloxy)pyridin-3-amine]	28.2
Fc1c(CNc2cnccc2N2CCNCC2)ccc2nccnc12 [compound 067, N-((5-fluoroquinoxalin-6-yl)methyl)-4-(piperazin-1-yl)pyridin-3-amine]	3.4
Cc1cncc(NCc2cc(F)c3nccnc3c2)c1N1CCNCC1 [compound 084, N-((8-fluoroquinoxalin-6-yl)methyl)-5-methyl-4-(piperazin-1-yl)pyridin-3-amine]	66.4
Cc1cncc(NCc2cc3nccnc3cc2Cl)c1N1CCNCC1 [compound 087, N-((7-chloroquinoxalin-6-yl)methyl)-5-methyl-4-(piperazin-1-yl)pyridin-3-amine]	20.9
FC(F)(F)c1cc(N2CCNCC2)c(NCc2ccc3nccnc3c2)cn1 [compound 117, 4-(piperazin-1-yl)-N-(quinoxalin-6-ylmethyl)-6-(trifluoromethyl)pyridin-3-amine]	30.6
C[C@H]1CN(c2ccncc2NCc2cc3nccnc3cc2F)CCN1 [compound 102, (S)—N-((7-fluoroquinoxalin-6-yl)methyl)-4-(3-methylpiperazin-1-yl)pyridin-3-amine]	13.6
COc1cc(CNc2cnccc2N2CCNCC2)cc2nccnc12 [compound 071, N-((8-methoxyquinoxalin-6-yl)methyl)-4-(piperazin-1-yl)pyridin-3-amine]	6.1
Cc1cncc(NCc2ccc3nccnc3c2)c1O[C@@H]1CCNC1 [compound 111, (R)-5-methyl-4-(pyrrolidin-3-yloxy)-N-(quinoxalin-6-ylmethyl)pyridin-3-amine]	74
Fc1nccc(N2CCNCC2)c1NCc1ccc2nccnc2c1 [compound 051, 2-fluoro-4-(piperazin-1-yl)-N-(quinoxalin-6-ylmethyl)pyridin-3-amine]	2.7
C[C@@H]1CNCCN1c1ccncc1NCc1cc(F)c2nccnc2c1 [compound 065, (R)—N-((8-fluoroquinoxalin-6-yl)methyl)-4-(2-methylpiperazin-1-yl)pyridin-3-amine]	21.7
Cc1cncc(NCc2ccc3nccnc3c2)c1N1CCCNCC1 [compound 094, 4-(1,4-diazepan-1-yl)-5-methyl-N-(quinoxalin-6-ylmethyl)pyridin-3-amine]	35.1
Fc1cc2nccnc2cc1CNc1cnccc1N1CCCNCC1 [compound 090, 4-(1,4-diazepan-1-yl)-N-((7-fluoroquinoxalin-6-yl)methyl)pyridin-3-amine]	15
Clc1cc2nccnc2cc1CNc1cnccc1O[C@@H]1CCNC1 [compound 108, (R)—N-((7-chloroquinoxalin-6-yl)methyl)-4-(pyrrolidin-3-yloxy)pyridin-3-amine]	37.5
Fc1cncc(NCc2cc(Cl)c3nccnc3c2)c1N1CCNCC1 [compound 081, N-((8-chloroquinoxalin-6-yl)methyl)-5-fluoro-4-(piperazin-1-yl)pyridin-3-amine]	3.9
Fc1cncc(NCc2ccc3nccnc3c2F)c1N1CCNCC1 [compound 079, 5-fluoro-N-((5-fluoroquinoxalin-6-yl)methyl)-4-(piperazin-1-yl)pyridin-3-amine]	4.4
FC(F)(F)c1cc(CNc2cnccc2O[C@@H]2CCNC2)cc2nccnc12 [compound 124, (R)-4-(pyrrolidin-3-yloxy)-N-((8-(trifluoromethyl)quinoxalin-6-yl)methyl)pyridin-3-amine]	3
Clc1cncc(NCc2cc(Cl)c3nccnc3c2)c1N1CCNCC1 [compound 055, 5-chloro-N-((8-chloroquinoxalin-6-yl)methyl)-4-(piperazin-1-yl)pyridin-3-amine]	4.1
Fc1cncc(NCc2cc3nccnc3cc2Cl)c1N1CCCNCC1 [compound 096, N-((7-chloroquinoxalin-6-yl)methyl)-4-(1,4-diazepan-1-yl)-5-fluoropyridin-3-amine]	16.2
C[C@@H]1CNCCN1c1ccncc1NCc1cc2nccnc2cc1Cl [compound 062, (R)—N-((7-chloroquinoxalin-6-yl)methyl)-4-(2-methylpiperazin-1-yl)pyridin-3-amine]	8

Same assay, conditions: Homo sapiens, HEK293, read-out: Fold induction 25 μM (HEK), 12G6 riboswitch, luciferase, HEK293, 25 μM

Structure (SMILES)	fold induction at 25 µM
CC1CNCCN1c1ccncc1NCc1ccc2nccnc2c1 (stereo not drawn) [compound 015, 4-(2-Methylpiperazin-1-yl)-N-(quinoxalin-6-ylmethyl)pyridin-3-amine]	329
c1cc(NCc2ccc3nccnc3c2)c(N2CCNCC2)cn1 [compound 040, 3-(piperazin-1-yl)-N-(quinoxalin-6-ylmethyl)pyridin-4-amine]	69
Clc1cncc(NCc2ccc3nccnc3c2)c1N1CCNCC1 [compound 019, 5-Chloro-4-(piperazin-1-yl)-N-(quinoxalin-6-ylmethyl)pyridin-3-amine]	453
c1cc(N2C3CNCC2C3)c(NCc2ccc3nccnc3c2)cn1 [compound 031, 4-(3,6-diazabicyclo[3.1.1]heptan-6-yl)-N-(quinoxalin-6-ylmethyl)pyridin-3-amine]	17.9
c1cc(C2CCNCC2)c(NCc2ccc3nccnc3c2)cn1 [compound 017, 4-(Piperidin-4-yl)-N-(quinoxalin-6-ylmethyl)pyridin-3-amine]	130
FC(F)(F)C1CN(c2ccncc2NCc2ccc3nccnc3c2)CCN1 (stereo not drawn) [compound 036, N-(quinoxalin-6-ylmethyl)-4-(3-(trifluoromethyl)piperazin-1-yl)pyridin-3-amine]	8.2
c1cc(OC2CCNC2)c(NCc2ccc3nccnc3c2)cn1 (stereo not drawn) [compound 018, 4-(Pyrrolidin-3-yloxy)-N-(quinoxalin-6-ylmethyl)pyridin-3-amine]	286
FC(F)(F)C1CNCCN1c1ccncc1NCc1ccc2nccnc2c1 (stereo not drawn) [compound 037, N-(quinoxalin-6-ylmethyl)-4-(2-(trifluoromethyl)piperazin-1-yl)pyridin-3-amine]	6.1
CC1CN(c2ccncc2NCc2ccc3nccnc3c2)CCN1 (stereo not drawn) [compound 016, 4-(3-Methylpiperazin-1-yl)-N-(quinoxalin-6-ylmethyl)pyridin-3-amine]	287
Clc1cc2nccnc2cc1CNc1cnccc1N1CCNCC1 [compound 013, N-((7-Chloroquinoxalin-6-yl)methyl)-4-(piperazin-1-yl)pyridin-3-amine]	314

Tested on: 12C6-1 riboswitch
Experiment: Firefly luciferase assay, Luci-12C6-1 riboswitch construct in transfected HEK 293 cells
Type: cell-based, human
Settings: HEK 293 cells
Text: Riboswitch construct: Aptamers were synthesized by Integrated DNA Technologies, Inc. The synthesized aptamer sequence, here referred to as aptamer sequence 12C6-1, contains a putative TPP aptamer sequence (AP008955.1/944373-944459; CP030117.1/954080-954166; CP023474.1/977011-977097) with C at 5′ end and a complementary G at 3′ end flanking the putative TPP aptamer sequence: […] […] (SEQ ID NO: 1). Golden Gate cloning strategy (New England Biolabs, NEB) was used to clone the synthesized aptamer sequences into an intron-exon-intron cassette to replace the guanine aptamer in the G17 riboswitch cassette (see SEQ ID NO: 15 recited in WO 2016/126747, which is incorporated herein in its entirety) to generate riboswitch construct Luci-12C6-1.

Structure (SMILES)	activation of 12C6-1 and derivative riboswitches in regulating Luciferase expression (FIG. 4d)
O=C(O)CCC(=O)Nc1ccc2nccnc2c1 [compound 003]	bind 12C6-1 and activate derivative riboswitches
O=C(CNc1cnccc1N1CCNCC1)Nc1ccc2nccnc2c1 [compound 005]	bind 12C6-1 and activate derivative riboswitches
